Assay results taken from patent US10138212B2, “Aminoquinazoline compounds as A2A antagonist” (Merck Sharp & Dohme Corp., priority 2015, dated 2018).
pKi: −log10 of the molar value.

What was measured:
human A2a receptor = human A2a receptor (Homo sapiens (Human), UniProt P29274); test: A2a competition binding assay using Scintillation Proximity technology
How it was run: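 Membranes (0.25 or 1 μg) from HEK293 expressing the receptor were pretreated with adenosine deaminase and bound to WGA-coated yttrium silicate SPA beads. They were incubated 1 h at room temperature with compound at 3000–0.15 nM and 0.5 nM tritiated pyrazolotriazolopyrimidine ligand in Ca/Mg-free DPBS with 10 mM MgCl2. Ki was derived from […] by Cheng-Prusoff.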

human A1 receptor = human A1 receptor (Homo sapiens (Human), UniProt P30542); test: A1 competition binding assay using Scintillation Proximity technology; selectivity = A1 binding Ki / A2a binding Ki; conditions: A1 binding Ki divided by A2a binding Ki
How it was run: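 SPA competition using 5 ug membranes from CHO-K1 cells expressing human A1, pretreated with adenosine deaminase. Radioligand was 0.7 nM [3H]DPCPX (final), with compound at 3000–0.15 nM in DPBS + 10 mM MgCl2. Incubation was 1 h at room temperature. Non-specific binding was defined with 1 uM DPCPX, and Ki was derived as for A2a.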

[1] = 0.25 μg of membranes from HEK293 cells expressing the human A2a receptor
[2] = * assay run with 1 μg of membranes versus 0.25 μg, HEK293 cells expressing the human A2a receptor

Chain of human A2a receptor (P29274 whole entry): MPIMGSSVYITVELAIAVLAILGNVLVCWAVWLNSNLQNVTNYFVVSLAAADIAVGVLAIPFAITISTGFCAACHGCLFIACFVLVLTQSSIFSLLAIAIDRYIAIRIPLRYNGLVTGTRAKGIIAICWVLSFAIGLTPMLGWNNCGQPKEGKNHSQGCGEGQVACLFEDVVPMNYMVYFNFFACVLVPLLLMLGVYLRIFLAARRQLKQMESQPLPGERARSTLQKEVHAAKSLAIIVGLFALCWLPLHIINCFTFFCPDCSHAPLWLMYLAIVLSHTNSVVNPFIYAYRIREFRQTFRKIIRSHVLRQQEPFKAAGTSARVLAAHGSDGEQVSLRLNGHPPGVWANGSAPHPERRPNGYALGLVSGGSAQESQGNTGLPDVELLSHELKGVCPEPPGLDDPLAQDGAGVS
Chain of human A1 receptor (P30542 whole entry): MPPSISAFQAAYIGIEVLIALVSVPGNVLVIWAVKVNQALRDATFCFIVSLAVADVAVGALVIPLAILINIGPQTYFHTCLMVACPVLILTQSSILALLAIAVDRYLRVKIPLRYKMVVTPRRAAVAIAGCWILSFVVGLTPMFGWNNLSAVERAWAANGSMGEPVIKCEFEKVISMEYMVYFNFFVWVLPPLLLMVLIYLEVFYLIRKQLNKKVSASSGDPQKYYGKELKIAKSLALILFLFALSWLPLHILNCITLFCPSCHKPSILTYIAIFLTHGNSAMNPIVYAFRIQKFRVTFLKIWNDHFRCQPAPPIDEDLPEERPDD

Compound	pKi (human A2a receptor; [1])	A2a selectivity (A2a A1 binding selectivity) (human A1 receptor)	pKi (human A2a receptor; [2])
Nc1nc(C(=O)NCc2cccc(-c3ccccn3)n2)c2cccc(F)c2n1 [Example 63, 2-amino-8-fluoro-N-[[6-(2-pyridyl)-2-pyridyl]methyl]quinazoline-4-carboxamide]	9.10	59	–
Nc1nc(C(=O)NCc2cccc(CO)n2)c2cccc(F)c2n1 [Example 57, 2-amino-8-fluoro-N-[[6-(hydroxymethyl)-2-pyridyl]methyl]quinazoline-4-carboxamide]	8.02	67	–
Nc1nc(C(=O)NCC2CC3CCC2C3)c2cccc(F)c2n1 (stereo not drawn) [Example 87, 2-amino-8-fluoro-N-(norbornan-2-ylmethyl)quinazoline-4-carboxamide]	–	3	7.49
COc1cccc2c(C(=O)NCc3ccccc3-c3cccnc3)nc(N)nc12 [Example 41, 2-amino-8-methoxy-N-[[2-(3-pyridyl)phenyl]methyl]quinazoline-4-carboxamide]	–	56	8.04
COc1cccc2c(C(=O)NCc3ccc(F)cn3)nc(N)nc12 [Example 26, 2-amino-N-[(5-fluoro-2-pyridyl)methyl]-8-methoxy-quinazoline-4-carboxamide]	8.18	89	–
Cc1ccc(CCNC(=O)c2nc(N)nc3c(F)cccc23)nc1 [Example 73, 2-amino-8-fluoro-N-[2-(5-methyl-2-pyridyl)ethyl)quinazoline-4-carboxamide]	6.65	33	–
COc1cccc2c(C(=O)NCc3cccc(C)c3)nc(N)nc12 [Example 17, 2-amino-8-methoxy-N-(m-tolylmethyl)quinazoline-4-carboxamide]	9.40	184	–
COc1cccc2c(C(=O)NCc3cccc(C(C)(C)O)n3)nc(N)nc12 [Example 9, 2-amino-N-[[6-(1-hydroxy-1-methyl-ethyl)-2-pyridyl]methyl]-8-methoxy-quinazoline-4-carboxamide]	9.40	764	–
COc1cccc2c(C(=O)NCc3ncc(C)cc3C)nc(N)nc12 [Example 28, 2-amino-N-[(3,5-dimethyl-2-pyridyl)methyl]-8-methoxy-quinazoline-4-carboxamide]	8.82	117	–
COc1cccc2c(C(=O)NCc3cccc(C(C)(O)C(F)(F)F)n3)nc(N)nc12 (stereo not drawn) [Example 3, 2-amino-8-methoxy-N-[[6-(2,2,2-trifluoro-1-hydroxy-1-methyl-ethyl)-2-pyridyl]methyl]quinazoline-4-carboxamide]	9.30	600	–
COc1cccc2c(C(=O)NCc3cccc(COCC4CCCC4)n3)nc(N)nc12 [Example 49, 2-amino-N-[[6-(cyclopentylmethoxy-methyl)-2-pyridyl]methyl]-8-methoxy-quinazoline-4-carboxamide]	9.30	251	–
Nc1nc(C(=O)NCC23CC4CC(CC(C4)C2)C3)c2cccc(F)c2n1 [Example 85, N-(1-adamantylmethyl)-2-amino-8-fluoro-quinazoline-4-carboxamide]	8.19	4	–
Cc1ccc(F)c(CNC(=O)c2nc(N)nc3c(F)cccc23)n1 [Example 76, 2-amino-8-fluoro-N-[(3-fluoro-6-methyl-2-pyridyl)methyl]quinazoline-4-carboxamide]	9.30	115	–
COc1cccc2c(C(=O)NCc3cccc(CSc4ccc(F)cc4)n3)nc(N)nc12 [Example 55, 2-amino-N-[[6-[(4-fluorophenyl)sulfanyl-methyl]-2-pyridyl]methyl]-8-methoxy-quinazoline-4-carboxamide]	–	36	8.49
COc1cccc2c(C(=O)NCc3cccc(F)n3)nc(N)nc12 [Example 27, 2-amino-N-[(6-fluoro-2-pyridyl)methyl]-8-methoxy-quinazoline-4-carboxamide]	8.82	148	–
Nc1nc(C(=O)NCc2cccc3cccnc23)c2cccc(Cl)c2n1 [Example 91, 2-amino-8-chloro-N-(8-quinolylmethyl)quinazoline-4-carboxamide]	8.52	70	–
COc1cccc2c(C(=O)NCc3ccc4ccccc4n3)nc(N)nc12 [Example 30, 2-amino-8-methoxy-N-(2-quinolylmethyl)quinazoline-4-carboxamide]	8.82	138	–

Compound	pKi (human A2a receptor; [1])	A2a selectivity (A2a A1 binding selectivity) (human A1 receptor)	pKi (human A2a receptor; [2])
[2H]C([2H])(NC(=O)c1nc(N)nc2c(OC)cccc12)c1cccc(C([2H])([2H])c2cncc(-c3ncco3)c2)n1 [Example 108, 2-amino-N-[dideuterio-[6-[dideuterio-(5-oxazol-2-yl-3-pyridyl)methyl]-2-pyridyl]methyl]-8-methoxy-quinazoline-4-carboxamide]	–	77	8.68
[2H]C([2H])(NC(=O)c1nc(N)nc2c(F)cccc12)c1cccc(Oc2ccc(OCCOC)cc2)n1 [Example 59, 2-amino-N-[dideuterio-[6-[4-(2-methoxyethoxy)phenoxy]-2-pyridyl]methyl]-8-fluoro-quinazoline-4-carboxamide]	–	32	8.43
COc1cccc2c(C(=O)NCc3cccc(COc4cccc(F)c4)n3)nc(N)nc12 [Example 54, 2-amino-N-[[6-[(3-fluorophenxoy)methyl]-2-pyridyl]methyl]-8-methoxy-quinazoline-4-carboxamide]	–	49	8.68
[2H]C([2H])(NC(=O)c1nc(N)nc2c(OC)cccc12)c1cccc(C([2H])([2H])c2ccc(C(C)(C)OCOC)nc2)n1 [Example 109, 2-amino-N-[dideuterio-[6-[dideuterio-[6-[1-(methoxymethoxy)-1-methyl-ethyl]-3-pyridyl]methyl]-2-pyridyl]methyl]-8-methoxy-quinazoline-4-carboxamide]	–	120	8.64
CC(C)c1nc(CNC(=O)c2nc(N)nc3c(F)cccc23)cs1 [Example 82, 2-amino-8-fluoro-N-[(2-isopropylthiazol-4-yl)methyl]quinazoline-4-carboxamide]	9.22	56	–
COc1cccc2c(C(=O)N[C@H]3CCCc4cccnc43)nc(N)nc12 [Example 35, 2-amino-8-methoxy-N-[(8S)-5,6,7,8-tetrahydroquinolin-8-yl]quinazoline-4-carboxamide]	6.74	48	–
COc1cccc2c(C(=O)NCc3cccc(COc4ccccc4F)n3)nc(N)nc12 [Example 44, 2-amino-N-[[6-[(2-fluorophenoxy)methyl]-2-pyridyl]methyl]-8-methoxy-quinazoline-4-carboxamide]	9.70	531	–
COc1cccc2c(C(=O)NCc3ncccc3C)nc(N)nc12 [Example 24, 2-amino-8-methoxy-N-[(3-methyl-2-pyridyl)methyl]quinazoline-4-carboxamide]	9.05	180	–
COc1cccc2c(C(=O)NCc3cccn(C)c3=O)nc(N)nc12 [Example 61, 2-amino-8-methoxy-N-[(1-methyl-2-oxo-3-pyridyl)methyl]quinazoline-4-carboxamide]	9.05	100	–
Nc1nc(C(=O)NCc2cccc(C(F)F)n2)c2cccc(F)c2n1 [Example 71, 2-amino-N-[[6-(difluoromethyl)-2-pyridyl]methyl]-8-fluoro-quinazoline-4-carboxamide]	8.44	60	–
COc1cccc2c(C(=O)NCc3cccc(C4CC4)n3)nc(N)nc12 [Example 7, 2-amino-N-[(6-cyclopropyl-2-pyridyl)methyl]-8-methoxy-quinazoline-4-carboxamide]	9.52	169	–
Nc1nc(C(=O)NCc2cccc3c2OCCN3)c2cccc(F)c2n1 [Example 84, 2-amino-N-(3,4-dihydro-2H-1,4-benzoxazin-8-ylmethyl)-8-fluoro-quinazoline-4-carboxamide]	8.28	25	–
Nc1nc(C(=O)NCc2cccc3cccnc23)c2cccc(C(F)(F)F)c2n1 [Example 92, 2-amino-N-(8-quinolylmethyl)-8-(trifluoromethyl)quinazoline-4-carboxamide]	8.64	560	–
Nc1nc(C(=O)NCc2cccc3cncn23)c2cccc(F)c2n1 [Example 80, 2-amino-8-fluoro-N-(imidazo[1,5-a]pyridin-5-ylmethyl)quinazoline-4-carboxamide]	–	21	8.21
COc1cccc2c(C(=O)NC(C)(C)c3ccccn3)nc(N)nc12 [Example 39, 2-amino-8-methoxy-N-[1-methyl-1-(2-pyridyl)ethyl]quinazoline-4-carboxamide]	6.38	9	–
COc1cccc2c(C(=O)NCc3ccccc3-c3ccccn3)nc(N)nc12 [Example 43, 2-amino-8-methoxy-N-[[2-(2-pyridyl)phenyl]methyl]quinazoline-4-carboxamide]	–	84	8.64
